Test system: septic shock patients
Test: Phase IIa clinical trial with nangibotide: days alive and free from vasopressor, IMV or CRRT
Format: in vivo, human
Details: for difference in the number of CRRT (continuous renal replacement therapy) free days alive vs. placebo / difference in the number of IMV (invasive mechanical ventilation) free days alive vs. placebo / difference in the number of vasopressor free days alive vs. placebo: day 0 to day 28
Experimental: This was a randomized, double-blind, two-stage, placebo-controlled study. As described in FIG. 7, the study was composed of 2 stages with a similar treatment regimen, in which 0.3, 1.0 or 3.0 mg/kg/h of nangibotide (corresponding to peptide LR12, having an amino acid sequence as set forth in SEQ ID NO: 9, also known as motrem) was tested versus placebo. All patients with a diagnosis of septic shock were considered for study participation. All potential study patients underwent standard care management procedures. Patients with evidence of septic shock according to the Sepsis-3 definition (Singer et al, JAMA 2016) were considered for inclusion (i.e., patients suffering from sepsis and having (i) persisting hypotension requiring vasopressors to maintain their mean arterial pressure ≥65 mm Hg and (ii) a serum lactate level >2 mmol/L (18 mg/dL) despite adequate volume resuscitation).
After screening for eligibility, patients were randomized to one of the treatment arms. Then, they received either a 5 mg/kg loading dose of nangibotide over 15 minutes followed by a continuous intravenous (i.v.) infusion of nangibotide or a matching placebo on top of standard of care. Treatment with study drug was initiated as early as possible, but no later than 24 hours after the onset of septic shock, defined by the start of vasopressor therapy. Patients were treated until 12 (±2) hours after the resolution of their septic shock (defined as vasopressor withdrawal) with a maximum treatment duration of 5 days (120 hours).
Adverse events (AEs) were coded using the MedDRA dictionary version 18.1. Treatment-emergent adverse events (TEAEs) were summarized and listed. Analysis was performed in 49 septic shock patients. The demographic and baseline characteristics were summarized in a descriptive fashion within each population: categorical variables were summarized by contingency tables (frequencies and percentages). sTREM-1 levels at day 1 were also described (mean, standard deviation, standard error, median, quartiles and range, minimum and maximum values). Mortality rates were reported by frequency and percentage. For continuous endpoints, i.e., the sequential organ failure assessment (SOFA), missing data were imputed using LOCF (Last Observation Carry-Forward). For time-to-event analyses, i.e., duration of invasive mechanical ventilation (IMV), duration of continuous renal replacement therapy (CRRT), survival, censored data techniques were utilized. In addition, a sensitivity analysis of time to event data (except survival) was performed using censoring at maximum limit for the corresponding observation period (i.e., either day 28 or day 90). […] The following comparisons were made: each nangibotide dose arm to placebo, all nangibotide doses combined versus placebo, and dose-response using an ordinal trend test. Exploratory composite endpoint: incidence (number and proportion) of patients alive at day 28 and free of vasopressor, free of IMV and free of CRRT were summarized by treatment and compared between treatments with a Fisher's exact test. For pharmacodynamic markers, log transformed data were represented as percentage change from baseline at day 5 or End of Infusion (EOI) if end of infusion was stopped before day 5. […] “All nangibotide” refers to analyses obtained by pooling data from 0.3, 1 and 3 mg/kg/h nangibotide-treated groups.

[1] = baseline high sTREM-1 subgroup, 0.3 mg/kg/h
[2] = baseline high sTREM-1 subgroup, 3 mg/kg/h
[3] = baseline high sTREM-1 subgroup, all nangibotide
[4] = baseline low sTREM-1 subgroup, 0.3 mg/kg/h
[5] = baseline low sTREM-1 subgroup, 3 mg/kg/h
[6] = baseline low sTREM-1 subgroup, all nangibotide
[7] = whole population, all nangibotide

## nangibotide (LQEEDAGEYGCM; TLT-1 peptide)
All nangibotide group, patients with high circulating sTREM-1 at baseline (above 433 pg/mL), placebo 40%
  proportion of patients alive and free of any medical support at day 28: 70%
[1]
  difference in the number of CRRT (continuous renal replacement therapy) free days alive vs. placebo: 8.67 days
  difference in the number of IMV (invasive mechanical ventilation) free days alive vs. placebo: 2.63 days
  difference in the number of vasopressor free days alive vs. placebo: 4.07 days
[2]
  difference in the number of CRRT (continuous renal replacement therapy) free days alive vs. placebo: 7.37 days
  difference in the number of IMV (invasive mechanical ventilation) free days alive vs. placebo: 4.30 days
  difference in the number of vasopressor free days alive vs. placebo: -0.48 days
[3]
  difference in the number of CRRT (continuous renal replacement therapy) free days alive vs. placebo: 7.85 days
  difference in the number of IMV (invasive mechanical ventilation) free days alive vs. placebo: 5.63 days
  difference in the number of vasopressor free days alive vs. placebo: 2.94 days
[4]
  difference in the number of CRRT (continuous renal replacement therapy) free days alive vs. placebo: 1.43 days
  difference in the number of IMV (invasive mechanical ventilation) free days alive vs. placebo: 3 days
  difference in the number of vasopressor free days alive vs. placebo: 2.29 days
[5]
  difference in the number of CRRT (continuous renal replacement therapy) free days alive vs. placebo: 0.89 days
  difference in the number of IMV (invasive mechanical ventilation) free days alive vs. placebo: -6.32 days
  difference in the number of vasopressor free days alive vs. placebo: 0.07 days
[6]
  difference in the number of CRRT (continuous renal replacement therapy) free days alive vs. placebo: 0.77 days
  difference in the number of IMV (invasive mechanical ventilation) free days alive vs. placebo: -1.30 days
  difference in the number of vasopressor free days alive vs. placebo: 0.64 days
No statistically significant differences
  vasopressor use, invasive mechanical ventilation (IMV) use and renal replacement therapy (RRT) use vs. placebo: consistent numerical trend in favor of nangibotide
Whole population, 0.3 mg/kg/h
  difference in the number of CRRT (continuous renal replacement therapy) free days alive vs. placebo: 4.10 days
  difference in the number of IMV (invasive mechanical ventilation) free days alive vs. placebo: 2.32 days
Whole population, 3 mg/kg/h
  difference in the number of CRRT (continuous renal replacement therapy) free days alive vs. placebo: 1.50 days
  difference in the number of IMV (invasive mechanical ventilation) free days alive vs. placebo: -2.08 days
[7]
  difference in the number of CRRT (continuous renal replacement therapy) free days alive vs. placebo: 2.70 days
  difference in the number of IMV (invasive mechanical ventilation) free days alive vs. placebo: 1.33 days
